The values that follow are results of earlier work, collected in patent US20030104065A1, “Method of preparing solid dispersions” (priority 2002, published 2003).

The conditions of the data set: local anesthetic effect, versus lidocaine.

On to `CCCN1CCCC[C@H]1C(=O)Nc1c(C)cccc1C` [ropivacaine], for which the “therapeutic potency relative to lidocaine” value is listed as “about 50 times”.
